Measured values: BigSolDB 2.1

O=c1c2ccccc2sc2ccc(Cl)cc12
Conditions	solubility (mole fraction)
in 1,2-dichloroethane, 291.55 K	0.0108
in 1,2-dichloroethane, 293.05 K	0.0114
in 1,2-dichloroethane, 294.95 K	0.0121
in 1,2-dichloroethane, 297.05 K	0.0131
in 1,2-dichloroethane, 299.15 K	0.0139
in 1,2-dichloroethane, 301.25 K	0.015
in 1,2-dichloroethane, 306.25 K	0.0173
in 1,2-dichloroethane, 311.35 K	0.0195
in 1,2-dichloroethane, 316.35 K	0.022
in 1,2-dichloroethane, 321.45 K	0.0247
in 1,2-dichloroethane, 326.75 K	0.0275
in 1,2-dichloroethane, 331.55 K	0.0307
in 1,4-dioxane, 290.35 K	0.00155
in 1,4-dioxane, 295.45 K	0.00263
in 1,4-dioxane, 300.45 K	0.00398
in 1,4-dioxane, 305.55 K	0.00552
in 1,4-dioxane, 310.45 K	0.00703
in 1,4-dioxane, 315.55 K	0.00882
in 1,4-dioxane, 320.45 K	0.0105
in 1,4-dioxane, 326.35 K	0.0128
in 1,4-dioxane, 331.15 K	0.0145
in 2-butanone, 292.15 K	0.00488
in 2-butanone, 297.05 K	0.00587
in 2-butanone, 301.95 K	0.00695
in 2-butanone, 306.65 K	0.00834
in 2-butanone, 311.25 K	0.0101
in 2-butanone, 316.15 K	0.0119
in 2-butanone, 321.25 K	0.0145
in 2-butanone, 326.55 K	0.017
in 2-butanone, 331.55 K	0.0208
in 2-butanone, 335.95 K	0.024
in THF, 291.85 K	0.00658
in THF, 296.95 K	0.00767
in THF, 302.15 K	0.00869
in THF, 307.25 K	0.00967
in THF, 312.25 K	0.0106
in THF, 317.25 K	0.0113
in THF, 322.25 K	0.0118
in THF, 327.55 K	0.0124
in THF, 332.85 K	0.0127
in acetone, 289.15 K	0.00244
in acetone, 294.75 K	0.00278
in acetone, 299.15 K	0.00306
in acetone, 303.65 K	0.00335
in acetone, 309.25 K	0.00381
in acetone, 313.35 K	0.00425
in acetone, 319.15 K	0.00498
in acetone, 323.35 K	0.00579
in acetone, 329.25 K	0.00692
in acetonitrile, 289.15 K	0.000623
in acetonitrile, 294.35 K	0.000768
in acetonitrile, 299.45 K	0.00093
in acetonitrile, 305.15 K	0.00114
in acetonitrile, 309.85 K	0.00133
in acetonitrile, 315.15 K	0.0016
in acetonitrile, 319.75 K	0.0019
in acetonitrile, 324.35 K	0.00226
in acetonitrile, 329.15 K	0.00265
in ethanol, 287.55 K	0.000567
in ethanol, 293.15 K	0.000679
in ethanol, 298.15 K	0.000795
in ethanol, 303.15 K	0.000943
in ethanol, 308.35 K	0.00122
in ethanol, 313.35 K	0.0015
in ethanol, 318.15 K	0.0019
in ethanol, 322.15 K	0.00229
in ethanol, 327.65 K	0.00296
in ethyl acetate, 289.15 K	0.00367
in ethyl acetate, 293.15 K	0.00419
in ethyl acetate, 298.25 K	0.00502
in ethyl acetate, 303.45 K	0.00588
in ethyl acetate, 308.25 K	0.00683
in ethyl acetate, 313.35 K	0.00786
in ethyl acetate, 318.45 K	0.00935
in ethyl acetate, 324.65 K	0.0112
in ethyl acetate, 330.15 K	0.0129
in isopropanol, 290.25 K	0.000547
in isopropanol, 295.15 K	0.000647
in isopropanol, 300.55 K	0.000757
in isopropanol, 304.75 K	0.000906
in isopropanol, 310.25 K	0.0011
in isopropanol, 314.95 K	0.00137
in isopropanol, 320.35 K	0.00179
in isopropanol, 325.65 K	0.00225
in isopropanol, 331.15 K	0.00292
in methanol, 292.15 K	0.000192
in methanol, 297.05 K	0.000236
in methanol, 301.95 K	0.000279
in methanol, 306.65 K	0.00036
in methanol, 311.25 K	0.000414
in methanol, 316.15 K	0.000535
in methanol, 321.25 K	0.000665
in methanol, 326.55 K	0.000878
in methanol, 331.55 K	0.00112
in methanol, 335.95 K	0.00134
in n-propanol, 290.65 K	0.000647
in n-propanol, 295.25 K	0.000769
in n-propanol, 300.15 K	0.000896
in n-propanol, 305.55 K	0.00106
in n-propanol, 310.65 K	0.00129
in n-propanol, 315.55 K	0.00156
in n-propanol, 320.65 K	0.0019
in n-propanol, 325.55 K	0.0023
in n-propanol, 331.15 K	0.00277
in toluene, 289.65 K	0.00915
in toluene, 295.05 K	0.0112
in toluene, 300.15 K	0.0138
in toluene, 305.25 K	0.0164
in toluene, 310.25 K	0.0193
in toluene, 315.35 K	0.023
in toluene, 320.35 K	0.0276
in toluene, 325.25 K	0.0321
in toluene, 330.25 K	0.039
